Measured values taken from US20240228504A1, “SUBSTITUTED TRICYCLIC AMIDES, ANALOGUES THEREOF, AND METHODS USING SAME” (Arbutus Biopharma Corporation, priority 2020, published 2024).

Tested on: HBV rcDNA in HepDE19 cells
Test: HepDE19 assay with bDNA quantitation of HBV rcDNA
Format: cell-based, hepatitis B virus
Conditions: HepDE19 assay, inhibition of rcDNA formation, bDNA quantitation; read-out: DE-19bDNA EC50

CN(C(=O)c1cc2cc(F)ccc2[nH]1)C1COCc2[nH]c(=O)c3cc(F)ccc3c21 (single isomer, unassigned) [Compound 30, 5-Fluoro-N-(8-fluoro-6-oxo-1,4,5,6-tetrahydro-2H-pyrano[3,4-c]isoquinolin-1-yl)-N-methyl-1H-indole-2-carboxamide] gave an EC50 of 10 nM.
CN(C(=O)c1cc2ccc(F)cc2[nH]1)C1COCc2[nH]c(=O)c3cc(F)ccc3c21 (single isomer, unassigned) [Compound 31, 6-Fluoro-N-(8-fluoro-6-oxo-1,4,5,6-tetrahydro-2H-pyrano[3,4-c]isoquinolin-1-yl)-N-methyl-1H-indole-2-carboxamide] gave an EC50 of 1200 nM.
CN(C(=O)c1cc2ccc(F)cc2[nH]1)C1COCc2[nH]c(=O)c3cc(F)ccc3c21 (single isomer, unassigned) [Compound 32, 6-Fluoro-N-(8-fluoro-6-oxo-1,4,5,6-tetrahydro-2H-pyrano[3,4-c]isoquinolin-1-yl)-N-methyl-1H-indole-2-carboxamide] was tested, and the EC50 was 20 nM.
In the case of CN(C(=O)c1cc2cccc(F)c2[nH]1)C1COCc2[nH]c(=O)c3cc(F)ccc3c21 (single isomer, unassigned) [Compound 33, 7-Fluoro-N-(8-fluoro-6-oxo-1,4,5,6-tetrahydro-2H-pyrano[3,4-c]isoquinolin-1-yl)-N-methyl-1H-indole-2-carboxamide], the EC50 is reported as 1800 nM.
Compound CN(C(=O)c1cc2cccc(F)c2[nH]1)C1COCc2[nH]c(=O)c3cc(F)ccc3c21 (single isomer, unassigned) [Compound 34, 7-Fluoro-N-(8-fluoro-6-oxo-1,4,5,6-tetrahydro-2H-pyrano[3,4-c]isoquinolin-1-yl)-N-methyl-1H-indole-2-carboxamide] has an EC50 of 30 nM.
CN(C(=O)c1cc2c(F)cc(F)cc2[nH]1)C1COCc2[nH]c(=O)c3cc(F)ccc3c21 (single isomer, unassigned) [Compound 35, 4,6-Difluoro-N-(8-fluoro-6-oxo-1,4,5,6-tetrahydro-2H-pyrano[3,4-c]isoquinolin-1-yl)-N-methyl-1H-indole-2-carboxamide] gave an EC50 of 1400 nM.
In the case of CN(C(=O)c1cc2c(F)cc(F)cc2[nH]1)C1COCc2[nH]c(=O)c3cc(F)ccc3c21 (single isomer, unassigned) [Compound 36, 4,6-Difluoro-N-(8-fluoro-6-oxo-1,4,5,6-tetrahydro-2H-pyrano[3,4-c]isoquinolin-1-yl)-N-methyl-1H-indole-2-carboxamide], the EC50 is reported as 20 nM.
CN(C(=O)c1cc2c(F)c(F)ccc2[nH]1)C1COCc2[nH]c(=O)c3cc(F)ccc3c21 (single isomer, unassigned) [Compound 37, 4,5-Difluoro-N-(8-fluoro-6-oxo-1,4,5,6-tetrahydro-2H-pyrano[3,4-c]isoquinolin-1-yl)-N-methyl-1H-indole-2-carboxamide] showed an EC50 of 700 nM.
Work on CN(C(=O)c1cc2c(F)c(F)ccc2[nH]1)C1COCc2[nH]c(=O)c3cc(F)ccc3c21 (single isomer, unassigned) [Compound 38, 4,5-Difluoro-N-(8-fluoro-6-oxo-1,4,5,6-tetrahydro-2H-pyrano[3,4-c]isoquinolin-1-yl)-N-methyl-1H-indole-2-carboxamide] yielded an EC50 of 10 nM.
Compound CN(C(=O)c1cc2cccc(F)c2[nH]1)C1COCc2[nH]c(=O)c3cc(F)c(F)cc3c21 (single isomer, unassigned) [Compound 39, N-(8,9-Difluoro-6-oxo-1,4,5,6-tetrahydro-2H-pyrano[3,4-c]isoquinolin-1-yl)-7-fluoro-N-methyl-1H-indole-2-carboxamide] has an EC50 of 770 nM.
Compound CN(C(=O)c1cc2cccc(F)c2[nH]1)C1COCc2[nH]c(=O)c3cc(F)c(F)cc3c21 (single isomer, unassigned) [Compound 40, N-(8,9-Difluoro-6-oxo-1,4,5,6-tetrahydro-2H-pyrano[3,4-c]isoquinolin-1-yl)-7-fluoro-N-methyl-1H-indole-2-carboxamide] has an EC50 of 10 nM.
With CN(C(=O)c1cc2c(F)cc(F)cc2[nH]1)C1COCc2[nH]c(=O)c3cc(F)c(F)cc3c21 (single isomer, unassigned) [Compound 43, N-(8,9-Difluoro-6-oxo-1,4,5,6-tetrahydro-2H-pyrano[3,4-c]isoquinolin-1-yl)-4,6-difluoro-N-methyl-1H-indole-2-carboxamide] the EC50 was 1800 nM.
Compound CN(C(=O)c1cc2c(F)cc(F)cc2[nH]1)C1COCc2[nH]c(=O)c3cc(F)c(F)cc3c21 (single isomer, unassigned) [Compound 44, N-(8,9-Difluoro-6-oxo-1,4,5,6-tetrahydro-2H-pyrano[3,4-c]isoquinolin-1-yl)-4,6-difluoro-N-methyl-1H-indole-2-carboxamide] has an EC50 of 10 nM.
For CN(C(=O)c1cc2c(F)c(F)ccc2[nH]1)C1COCc2[nH]c(=O)c3cc(F)c(F)cc3c21 (single isomer, unassigned) [Compound 45, N-(8,9-Difluoro-6-oxo-1,4,5,6-tetrahydro-2H-pyrano[3,4-c]isoquinolin-1-yl)-4,5-difluoro-N-methyl-1H-indole-2-carboxamide], the EC50 was 310 nM.
CN(C(=O)c1cc2c(F)c(F)ccc2[nH]1)C1COCc2[nH]c(=O)c3cc(F)c(F)cc3c21 (single isomer, unassigned) [Compound 46, N-(8,9-Difluoro-6-oxo-1,4,5,6-tetrahydro-2H-pyrano[3,4-c]isoquinolin-1-yl)-4,5-difluoro-N-methyl-1H-indole-2-carboxamide] showed an EC50 of 5 nM.
Work on CN(C(=O)c1cc2c([nH]1)CCC(F)(F)C2)C1COCc2[nH]c(=O)c3cc(F)c(F)cc3c21 (single isomer, unassigned) [Compound 47, N-(8,9-Difluoro-6-oxo-1,4,5,6-tetrahydro-2H-pyrano[3,4-c]isoquinolin-1-yl)-5,5-difluoro-N-methyl-4,5,6,7-tetrahydro-1H-indole-2-carboxamide] yielded an EC50 of 20 nM.
In the case of CN(C(=O)c1cc2c([nH]1)CCC(F)(F)C2)C1COCc2[nH]c(=O)c3cc(F)c(F)cc3c21 (single isomer, unassigned) [Compound 48, N-(8,9-Difluoro-6-oxo-1,4,5,6-tetrahydro-2H-pyrano[3,4-c]isoquinolin-1-yl)-5,5-difluoro-N-methyl-4,5,6,7-tetrahydro-1H-indole-2-carboxamide], the EC50 is reported as 770 nM.
In the case of CN(C(=O)c1cc2cc(F)c(F)cc2[nH]1)C1COCc2[nH]c(=O)c3cc(F)ccc3c21 (single isomer, unassigned) [Compound 49, 5,6-Difluoro-N-(8-fluoro-6-oxo-1,4,5,6-tetrahydro-2H-pyrano[3,4-c]isoquinolin-1-yl)-N-methyl-1H-indole-2-carboxamide], the EC50 is reported as 2100 nM.
With CN(C(=O)c1cc2cc(F)c(F)cc2[nH]1)C1COCc2[nH]c(=O)c3cc(F)ccc3c21 (single isomer, unassigned) [Compound 50, 5,6-Difluoro-N-(8-fluoro-6-oxo-1,4,5,6-tetrahydro-2H-pyrano[3,4-c]isoquinolin-1-yl)-N-methyl-1H-indole-2-carboxamide] the EC50 was 10 nM.
For CN(C(=O)c1cc2ccccc2[nH]1)C1CNCc2[nH]c(=O)c3cc(F)c(F)cc3c21 (single isomer, unassigned) [Compound 54, N-(8,9-Difluoro-6-oxo-1,2,3,4,5,6-hexahydrobenzo[c][1,7]naphthyridin-1-yl)-N-methyl-1H-indole-2-carboxamide], the EC50 was 850 nM.
CN(C(=O)c1cc2ccccc2[nH]1)C1CNCc2[nH]c(=O)c3cc(F)c(F)cc3c21 (single isomer, unassigned) [Compound 55, N-(8,9-Difluoro-6-oxo-1,2,3,4,5,6-hexahydrobenzo[c][1,7]naphthyridin-1-yl)-N-methyl-1H-indole-2-carboxamide] showed an EC50 of 10 nM.
Work on CN1Cc2[nH]c(=O)c3cc(F)ccc3c2C(N(C)C(=O)c2cc3ccccc3[nH]2)C1 (single isomer, unassigned) [Compound 60, N-(8-Fluoro-3-methyl-6-oxo-1,2,3,4,5,6-hexahydrobenzo[c][1,7]naphthyridin-1-yl)-N-methyl-1H-indole-2-carboxamide] yielded an EC50 of 5900 nM.
CN1Cc2[nH]c(=O)c3cc(F)ccc3c2C(N(C)C(=O)c2cc3ccccc3[nH]2)C1 (single isomer, unassigned) [Compound 61, N-(8-Fluoro-3-methyl-6-oxo-1,2,3,4,5,6-hexahydrobenzo[c][1,7]naphthyridin-1-yl)-N-methyl-1H-indole-2-carboxamide] gave an EC50 of 2300 nM.
Compound CN1Cc2[nH]c(=O)c3cc(F)c(F)cc3c2C(N(C)C(=O)c2cc3ccccc3[nH]2)C1 (single isomer, unassigned) [Compound 62, N-(8,9-Difluoro-3-methyl-6-oxo-1,2,3,4,5,6-hexahydrobenzo[c][1,7]naphthyridin-1-yl)-N-methyl-1H-indole-2-carboxamide] has an EC50 of 5100 nM.
CN1Cc2[nH]c(=O)c3cc(F)c(F)cc3c2C(N(C)C(=O)c2cc3ccccc3[nH]2)C1 (single isomer, unassigned) [Compound 63, N-(8,9-Difluoro-3-methyl-6-oxo-1,2,3,4,5,6-hexahydrobenzo[c][1,7]naphthyridin-1-yl)-N-methyl-1H-indole-2-carboxamide] gave an EC50 of 170 nM.
Compound CC(=O)N1Cc2[nH]c(=O)c3cc(F)ccc3c2C(N(C)C(=O)c2cc3ccccc3[nH]2)C1 (single isomer, unassigned) [Compound 68, N-(3-Acetyl-8-fluoro-6-oxo-1,2,3,4,5,6-hexahydrobenzo[c][1,7]naphthyridin-1-yl)-N-methyl-1H-indole-2-carboxamide] has an EC50 of 5500 nM.
In the case of CC(=O)N1Cc2[nH]c(=O)c3cc(F)ccc3c2C(N(C)C(=O)c2cc3ccccc3[nH]2)C1 (single isomer, unassigned) [Compound 69, N-(3-Acetyl-8-fluoro-6-oxo-1,2,3,4,5,6-hexahydrobenzo[c][1,7]naphthyridin-1-yl)-N-methyl-1H-indole-2-carboxamide], the EC50 is reported as 21000 nM.
In the case of CN(C(=O)c1cc2ccccc2[nH]1)C1CNCc2[nH]c(=O)c3cc(F)ccc3c21 (single isomer, unassigned) [Compound 77, N-(8-Fluoro-6-oxo-1,2,3,4,5,6-hexahydrobenzo[c][1,7]naphthyridin-1-yl)-N-methyl-1H-indole-2-carboxamide], the EC50 is reported as 150 nM.
